Literature values as cited in patent US20090123919A1, “Diagnosing Pathological Conditions Using Interallelic Epigenetic Variations” (Allelis Diagnostics Ltd., priority 2005, published 2009).

Test system: aneuploid genotypes
Conditions: in the presence of 5-azacytidine, an inhibitor of DNA methylation

SMILES: Nc1ncn([C@@H]2O[C@H](CO)[C@@H](O)[C@H]2O)c(=O)n1 [5-azacytidine]
- loss of the inherent temporal order of allelic replication: can be reversed
